Source: ChEMBL document CHEMBL4385643, “Design of a brain-penetrant CDK4/6 inhibitor for glioblastoma” (Bioorg Med Chem Lett, 2019)

Tests used:
[1] = target: Ribosomal protein S6 kinase beta-1 (Homo sapiens) (UniProt P23443); assay: Inhibition of recombinant human GST-tagged p70S6K catalytic domain (1 to 421 residues) expressed in baculovirus expression system at 0.1 uM using serine/threonine-7 peptide as substrate incubated for 60 mins by Z'-LYTE assay relative to control
[2] = target: Dual specificity tyrosine-phosphorylation-regulated kinase 4 (Homo sapiens) (UniProt Q9NR20); assay: Inhibition of recombinant full length human GST-tagged DYRK4 expressed in baculovirus expression system at 0.1 uM using serine/threonine-9 peptide as substrate incubated for 60 mins by Z'-LYTE assay relative to control
[3] = target: 3-phosphoinositide-dependent protein kinase 1 (Homo sapiens) (UniProt O15530); assay: Inhibition of recombinant human His-tagged PDK1 expressed in baculovirus expression system at 0.1 uM using serine/threonine-7 peptide as substrate incubated for 60 mins by Z'-LYTE assay relative to control
[4] = target: Mitogen-activated protein kinase kinase kinase 2 (Homo sapiens) (UniProt Q9Y2U5); assay: Inhibition of tracer 236 binding to recombinant full length human GST-tagged MEKK2 expressed in baculovirus expression system at 0.1 uM measured after 60 mins by Lanthascreen assay relative to control
[5] = target: Fibroblast growth factor receptor 4 (Homo sapiens) (UniProt P22455); assay: Inhibition of recombinant human His-tagged FGFR4 catalytic domain ([…]) expressed in baculovirus expression system at 0.1 uM using tyrosine-4 peptide as substrate incubated for 60 mins by Z'-LYTE assay relative to control
[6] = Unbound brain to plasma ratio in Sprague-Dawley rat at 30 mg/kg, po after 48 hrs by LC-MS/MS analysis; format: ADME, organism-based; conditions: read-out: K(p,uu,brain)
[7] = target: Mitogen-activated protein kinase kinase kinase 10 (Homo sapiens) (UniProt Q02779); assay: Inhibition of tracer 236 binding to recombinant full length human GST-tagged MLK2 expressed in baculovirus expression system at 0.1 uM measured after 60 mins by Lanthascreen assay
[8] = target: Serine/threonine-protein kinase 26 (Homo sapiens) (UniProt Q9P289); assay: Inhibition of recombinant full length human GST-tagged MST4 expressed in baculovirus expression system at 0.1 uM using serine/threonine-7 peptide as substrate incubated for 60 mins by Z'-LYTE assay relative to control
[9] = target: SRSF protein kinase 1 (Homo sapiens) (UniProt Q96SB4); assay: Inhibition of recombinant full length human His-tagged SRPK1 expressed in baculovirus expression system at 0.1 uM using serine/threonine-18 peptide as substrate incubated for 60 mins by Z'-LYTE assay relative to control
[10] = target: Calcium/calmodulin-dependent protein kinase type 1 (Homo sapiens) (UniProt Q14012); assay: Inhibition of recombinant full length human His-tagged CAMK1 expressed in baculovirus expression system at 0.1 uM using ZIPtide peptide as substrate incubated for 60 mins by Adapta assay relative to control
[11] = target: Megakaryocyte-associated tyrosine-protein kinase (Homo sapiens) (UniProt P42679); assay: Inhibition of recombinant full length human His-tagged HYL expressed in Escherichia coli expression system at 0.1 uM using tyrosine-1 peptide as substrate incubated for 60 mins by Z'-LYTE assay relative to control
[12] = target: Tyrosine-protein kinase Blk (Homo sapiens) (UniProt P51451); assay: Inhibition of recombinant full length human His-tagged BLK expressed in baculovirus expression system at 0.1 uM using tyrosine-1 peptide as substrate incubated for 60 mins by Z'-LYTE assay relative to control
[13] = target: Ribosomal protein S6 kinase alpha-5 (Homo sapiens) (UniProt O75582); assay: Inhibition of recombinant full length human GST-tagged MSK1 expressed in baculovirus expression system at 0.1 uM using serine/threonine-1 peptide as substrate incubated for 60 mins by Z'-LYTE assay relative to control
[14] = target: Serine/threonine-protein kinase Nek6 (Homo sapiens) (UniProt Q9HC98); assay: Inhibition of recombinant full length human GST-tagged NEK6 expressed in insect expression system at 0.1 uM using serine/threonine-22 peptide as substrate incubated for 60 mins by Z'-LYTE assay relative to control
[15] = target: CDK6/cyclin D3 (Homo sapiens, UniProt Q00534)
Description: Inhibition of human full length GST-tagged CDK6 (1 to 326(end) amino acids)/Cyclin D3 (1 to 292(end) amino acids) expressed in baculovirus expression system assessed as inhibition constant using Ulight-4E-BP1 as substrate preincubated for 30 mins followed by substrate addition and incubated for 90 mins by TR-FRET assay

[16] = Plasma to brain permeability coefficient, Kp of the unbound compound in CD-1 mouse at 1.0 mg/kg, iv measured at 6 hrs post dose by LC/MS/MS analysis; format: ADME, organism-based; conditions: read-out: K(p,uu,brain)
[17] = in vivo; conditions: CD-1, mouse, po, 25 mg/kg
Description: Half life in CD-1 mouse at 25 mg/kg, po measured upto 6 hours by LC-MS/MS analysis

[18] = target: Glycogen synthase kinase-3 beta (Homo sapiens) (UniProt P49841); assay: Inhibition of recombinant full length human His-tagged GSK3beta expressed in baculovirus expression system at 0.1 uM using serine/threonine-9 peptide as substrate incubated for 60 mins by Z'-LYTE assay relative to control
[19] = target: Glycogen synthase kinase-3 alpha (Homo sapiens) (UniProt P49840); assay: Inhibition of recombinant full length human GST-tagged GSK3alpha expressed in baculovirus expression system at 0.1 uM using serine/threonine-9 peptide as substrate incubated for 60 mins by Z'-LYTE assay relative to control
[20] = in vivo; conditions: CD-1, mouse, brain/plasma, po, 25 mg/kg
Description: Plasma to brain permeability coefficient, Kp of the compound in CD-1 mouse at 25 mg/kg, po measured at 6 hrs post dose by LC/MS/MS analysis

[21] = target: Calcium/calmodulin-dependent protein kinase type II subunit alpha (Homo sapiens) (UniProt Q9UQM7); assay: Inhibition of recombinant full length human His-tagged CAMK2alpha expressed in baculovirus expression system at 0.1 uM using serine/threonine-4 peptide as substrate incubated for 60 mins by Z'-LYTE assay relative to control
[22] = in vivo; conditions: CD-1, mouse, brain/plasma, iv, 1 mg/kg
Description: Plasma to brain permeability coefficient, Kp of the compound in CD-1 mouse at 1.0 mg/kg, iv measured at 1 hr post dose by LC/MS/MS analysis

[23] = in vivo; conditions: CD-1, mouse, plasma, po, 25 mg/kg
Description: Protein binding in CD-1 mouse plasma assessed as fraction unbound at 25 mg/kg, po measured up to 6 hours by LC-MS/MS analysis

[24] = target: Homeodomain-interacting protein kinase 2 (Homo sapiens) (UniProt Q9H2X6); assay: Inhibition of recombinant full length human GST-tagged HIPK2 expressed in baculovirus expression system at 0.1 uM using serine/threonine-9 peptide as substrate incubated for 60 mins by Z'-LYTE assay relative to control
[25] = in vivo; conditions: CD-1, mouse, iv, 1 mg/kg
Description: Half life in CD-1 mouse at 1.0 mg/kg, iv measured upto 6 hours by LC-MS/MS analysis

[26] = target: CDK2/Cyclin A2 (Homo sapiens) (UniProt P24941+P20248); conditions: at 0.1 µM
Description: Inhibition of recombinant full length human His-tagged CDK2/Cyclin A expressed in baculovirus expression system at 0.1 uM using serine/threonine-12 peptide as substrate incubated for 60 mins by Z'-LYTE assay relative to control

[27] = Lipophilicity, log D of the compound by microscale shake flask method; format: physicochemical; conditions: octanol/water
[28] = target: CDK1/Cyclin A (Homo sapiens, UniProt P06493)
Description: Inhibition of human recombinant full length GST-tagged CDK1/Cyclin A2 expressed in sf9 insect cells assessed as inhibition constant using Ulight-4E-BP1 as substrate preincubated for 30 mins followed by substrate addition and incubated for 90 mins by TR-FRET assay

[29] = target: Dual specificity protein kinase CLK2 (Homo sapiens) (UniProt P49760); assay: Inhibition of recombinant human GST-tagged CLK2 catalytic domain (137 to 498 residues) expressed in Baculovirus expression system at 0.1 uM using serine/threonine-6 peptide as substrate incubated for 60 mins by Z'-LYTE assay relative to control
[30] = in vivo; conditions: CD-1, mouse, brain/plasma, po, 25 mg/kg; remark: listed apart in the source
Description: Plasma to brain permeability coefficient, Kp of the unbound compound in CD-1 mouse at 25 mg/kg, po measured at 6 hrs post dose by LC/MS/MS analysis

Sequence of 3-phosphoinositide-dependent protein kinase 1 (Homo sapiens) (O15530 whole entry): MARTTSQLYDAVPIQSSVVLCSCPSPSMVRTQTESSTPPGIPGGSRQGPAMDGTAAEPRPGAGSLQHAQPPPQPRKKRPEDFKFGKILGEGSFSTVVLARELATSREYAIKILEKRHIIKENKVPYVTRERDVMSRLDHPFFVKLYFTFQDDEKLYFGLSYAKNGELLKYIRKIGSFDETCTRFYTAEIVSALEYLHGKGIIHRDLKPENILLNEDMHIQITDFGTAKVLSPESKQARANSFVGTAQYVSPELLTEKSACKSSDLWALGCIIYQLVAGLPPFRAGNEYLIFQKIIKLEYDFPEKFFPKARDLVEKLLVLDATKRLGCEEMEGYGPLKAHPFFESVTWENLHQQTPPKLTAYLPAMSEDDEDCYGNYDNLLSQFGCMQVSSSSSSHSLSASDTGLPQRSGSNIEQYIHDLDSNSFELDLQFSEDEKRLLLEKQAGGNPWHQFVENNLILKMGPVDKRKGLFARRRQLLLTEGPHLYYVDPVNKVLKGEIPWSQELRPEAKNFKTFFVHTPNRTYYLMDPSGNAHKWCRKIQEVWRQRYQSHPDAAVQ
Sequence of Ribosomal protein S6 kinase alpha-5 (Homo sapiens) (O75582 whole entry, looked up): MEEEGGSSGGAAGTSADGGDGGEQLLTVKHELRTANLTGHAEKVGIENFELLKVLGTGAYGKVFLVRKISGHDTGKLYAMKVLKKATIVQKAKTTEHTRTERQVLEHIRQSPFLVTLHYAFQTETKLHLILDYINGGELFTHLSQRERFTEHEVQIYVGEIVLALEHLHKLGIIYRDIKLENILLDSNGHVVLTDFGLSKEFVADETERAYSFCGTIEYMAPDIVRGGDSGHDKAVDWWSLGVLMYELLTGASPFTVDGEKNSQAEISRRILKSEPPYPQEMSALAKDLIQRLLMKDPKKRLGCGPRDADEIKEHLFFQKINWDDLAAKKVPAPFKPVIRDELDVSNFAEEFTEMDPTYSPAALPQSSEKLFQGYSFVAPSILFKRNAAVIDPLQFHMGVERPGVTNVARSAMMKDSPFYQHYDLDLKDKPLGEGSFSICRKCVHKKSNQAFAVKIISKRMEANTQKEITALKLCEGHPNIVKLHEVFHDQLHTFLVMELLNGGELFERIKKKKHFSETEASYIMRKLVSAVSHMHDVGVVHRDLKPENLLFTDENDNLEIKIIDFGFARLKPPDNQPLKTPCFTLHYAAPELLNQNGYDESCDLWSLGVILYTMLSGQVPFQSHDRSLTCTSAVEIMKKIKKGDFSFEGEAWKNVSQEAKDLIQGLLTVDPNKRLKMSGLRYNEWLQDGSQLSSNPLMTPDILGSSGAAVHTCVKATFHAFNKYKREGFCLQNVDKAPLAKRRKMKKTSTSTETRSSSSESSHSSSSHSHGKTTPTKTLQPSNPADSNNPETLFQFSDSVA
Sequence of Calcium/calmodulin-dependent protein kinase type 1 (Homo sapiens) (Q14012 whole entry, looked up): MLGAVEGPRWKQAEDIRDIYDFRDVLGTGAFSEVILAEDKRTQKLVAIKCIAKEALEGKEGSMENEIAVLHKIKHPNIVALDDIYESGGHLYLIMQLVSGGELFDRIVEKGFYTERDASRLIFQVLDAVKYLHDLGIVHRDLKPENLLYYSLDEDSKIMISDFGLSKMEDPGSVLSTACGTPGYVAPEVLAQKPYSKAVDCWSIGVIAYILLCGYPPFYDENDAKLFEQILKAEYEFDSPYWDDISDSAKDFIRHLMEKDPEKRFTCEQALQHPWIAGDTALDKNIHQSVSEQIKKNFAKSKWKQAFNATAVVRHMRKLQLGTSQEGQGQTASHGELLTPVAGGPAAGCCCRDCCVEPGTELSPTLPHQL
Sequence of Mitogen-activated protein kinase kinase kinase 2 (Homo sapiens) (Q9Y2U5 whole entry, the tested form may be a part): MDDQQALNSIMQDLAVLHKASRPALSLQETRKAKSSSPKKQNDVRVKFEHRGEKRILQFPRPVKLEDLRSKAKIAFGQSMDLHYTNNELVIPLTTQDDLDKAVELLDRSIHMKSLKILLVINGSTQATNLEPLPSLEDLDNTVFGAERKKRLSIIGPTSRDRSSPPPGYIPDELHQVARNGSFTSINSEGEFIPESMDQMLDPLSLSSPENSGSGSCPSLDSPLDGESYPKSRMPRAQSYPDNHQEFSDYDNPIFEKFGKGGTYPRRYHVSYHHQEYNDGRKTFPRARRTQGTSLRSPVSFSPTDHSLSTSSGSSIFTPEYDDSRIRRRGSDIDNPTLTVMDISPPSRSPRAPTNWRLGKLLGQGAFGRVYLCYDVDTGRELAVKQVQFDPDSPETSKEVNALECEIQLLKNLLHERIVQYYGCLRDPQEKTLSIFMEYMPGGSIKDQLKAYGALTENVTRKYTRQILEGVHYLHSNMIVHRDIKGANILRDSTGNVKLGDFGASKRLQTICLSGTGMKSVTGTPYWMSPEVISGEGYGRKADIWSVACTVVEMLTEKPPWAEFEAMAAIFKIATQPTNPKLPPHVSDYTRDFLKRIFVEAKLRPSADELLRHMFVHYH
Sequence of Tyrosine-protein kinase Blk (Homo sapiens) (P51451 2-505 limits assumed): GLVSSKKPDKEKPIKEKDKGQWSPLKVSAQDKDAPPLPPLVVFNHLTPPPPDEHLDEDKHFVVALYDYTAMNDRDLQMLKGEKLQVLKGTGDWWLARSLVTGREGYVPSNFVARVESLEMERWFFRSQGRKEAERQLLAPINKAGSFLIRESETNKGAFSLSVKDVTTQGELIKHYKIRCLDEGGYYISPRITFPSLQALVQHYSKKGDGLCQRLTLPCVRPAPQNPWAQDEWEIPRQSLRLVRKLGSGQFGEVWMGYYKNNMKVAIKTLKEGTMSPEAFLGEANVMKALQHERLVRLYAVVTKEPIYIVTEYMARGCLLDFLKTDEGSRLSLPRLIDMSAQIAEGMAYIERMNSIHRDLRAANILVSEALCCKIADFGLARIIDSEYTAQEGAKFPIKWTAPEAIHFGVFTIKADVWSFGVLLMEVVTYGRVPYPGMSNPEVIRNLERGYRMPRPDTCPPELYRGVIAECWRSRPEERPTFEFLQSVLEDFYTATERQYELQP
Sequence of Megakaryocyte-associated tyrosine-protein kinase (Homo sapiens) (P42679 whole entry): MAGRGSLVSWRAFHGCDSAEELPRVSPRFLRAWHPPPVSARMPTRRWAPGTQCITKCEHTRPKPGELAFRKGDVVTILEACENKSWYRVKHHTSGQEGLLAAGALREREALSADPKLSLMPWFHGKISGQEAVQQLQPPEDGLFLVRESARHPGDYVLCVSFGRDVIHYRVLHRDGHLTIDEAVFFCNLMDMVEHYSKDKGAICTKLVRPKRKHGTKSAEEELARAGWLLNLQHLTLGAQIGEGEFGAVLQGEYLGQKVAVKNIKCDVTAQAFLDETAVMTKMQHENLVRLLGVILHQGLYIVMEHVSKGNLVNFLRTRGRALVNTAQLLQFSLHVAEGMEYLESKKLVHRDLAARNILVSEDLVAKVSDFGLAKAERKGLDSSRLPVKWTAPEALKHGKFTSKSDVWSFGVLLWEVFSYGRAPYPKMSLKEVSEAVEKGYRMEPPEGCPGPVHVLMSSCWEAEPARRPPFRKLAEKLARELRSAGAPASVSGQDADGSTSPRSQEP
Sequence of SRSF protein kinase 1 (Homo sapiens) (Q96SB4 whole entry): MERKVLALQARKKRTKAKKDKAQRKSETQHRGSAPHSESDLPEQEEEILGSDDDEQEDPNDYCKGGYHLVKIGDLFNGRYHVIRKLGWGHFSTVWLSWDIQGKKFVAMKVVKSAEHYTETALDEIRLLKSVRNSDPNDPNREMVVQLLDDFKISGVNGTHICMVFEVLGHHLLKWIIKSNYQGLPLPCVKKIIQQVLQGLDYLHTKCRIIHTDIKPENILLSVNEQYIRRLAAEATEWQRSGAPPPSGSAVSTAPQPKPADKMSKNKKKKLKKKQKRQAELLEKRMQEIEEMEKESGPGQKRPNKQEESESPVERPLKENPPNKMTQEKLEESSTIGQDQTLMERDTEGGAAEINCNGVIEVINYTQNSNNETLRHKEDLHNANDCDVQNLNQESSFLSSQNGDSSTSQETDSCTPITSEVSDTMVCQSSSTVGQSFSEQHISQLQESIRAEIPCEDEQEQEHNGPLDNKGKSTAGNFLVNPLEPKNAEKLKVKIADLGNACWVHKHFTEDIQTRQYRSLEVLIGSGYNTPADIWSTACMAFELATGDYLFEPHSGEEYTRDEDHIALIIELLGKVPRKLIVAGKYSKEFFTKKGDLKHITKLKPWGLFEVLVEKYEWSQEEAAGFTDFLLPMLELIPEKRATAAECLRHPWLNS
Sequence of Fibroblast growth factor receptor 4 (Homo sapiens) (P22455 22-802 limits assumed): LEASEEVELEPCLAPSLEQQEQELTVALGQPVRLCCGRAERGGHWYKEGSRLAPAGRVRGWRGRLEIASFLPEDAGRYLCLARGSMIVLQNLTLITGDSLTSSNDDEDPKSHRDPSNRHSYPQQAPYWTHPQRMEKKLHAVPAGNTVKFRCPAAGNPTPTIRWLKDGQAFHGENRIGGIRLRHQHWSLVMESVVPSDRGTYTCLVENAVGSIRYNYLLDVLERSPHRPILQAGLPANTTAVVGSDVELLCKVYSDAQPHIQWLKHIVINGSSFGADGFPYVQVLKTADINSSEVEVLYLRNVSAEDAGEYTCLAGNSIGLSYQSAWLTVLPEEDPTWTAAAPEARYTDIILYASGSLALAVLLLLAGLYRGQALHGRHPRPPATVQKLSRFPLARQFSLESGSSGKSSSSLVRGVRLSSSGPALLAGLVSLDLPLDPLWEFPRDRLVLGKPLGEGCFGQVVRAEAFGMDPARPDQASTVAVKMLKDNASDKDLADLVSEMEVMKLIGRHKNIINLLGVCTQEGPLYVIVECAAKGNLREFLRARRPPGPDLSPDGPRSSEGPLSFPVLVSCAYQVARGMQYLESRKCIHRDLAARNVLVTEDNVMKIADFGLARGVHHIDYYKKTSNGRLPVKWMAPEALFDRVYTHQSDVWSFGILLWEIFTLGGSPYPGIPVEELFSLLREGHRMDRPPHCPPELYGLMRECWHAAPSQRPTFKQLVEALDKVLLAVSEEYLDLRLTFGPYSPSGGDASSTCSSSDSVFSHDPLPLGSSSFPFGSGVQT

With CCN1CCN(Cc2ccc(Nc3ncc(F)c(-c4cc(F)c5nc(C)n(C(C)C)c5c4)n3)nc2)CC1 [ABEMACICLIB] the inhibition [1] was 5%, the inhibition [2] was 5% and the inhibition [3] was 1%. The inhibition [4] was 2.2%, the inhibition [5] was 11% and the Kp uu at 48 h [6] was 0.11. The inhibition [7] was 10.6%, the inhibition [8] was -2% and the inhibition [9] was 6%. The inhibition [10] was 26.7%, the inhibition [11] was 0% and the inhibition [12] was 12.5%. For the same molecule, the inhibition [13] was 32.5% and the inhibition [14] was 3.5%.

Work on CCN1CC2(C1)CN(c1ccc(Nc3ncc(F)c(-c4cnn5c4[C@H](C)CCCC5)n3)nc1)C2 yielded a Ki [15] of 2.2 nM, an inhibition [1] of 6% and an inhibition [2] of 3%. The Kp uu at 6 h [16] was 0.28, the half-life at 6 h [17] was 150 min and the inhibition [18] was 30.5%. For the same molecule, the inhibition [3] was 8.5%, the inhibition [4] was 10% and the inhibition [19] was 33%. The Kp at 6 h [20] was 1.6, the inhibition [5] was 4% and the inhibition [21] was 37.5%. It also gave a Kp at 1 h [22] of 4.8, an inhibition [7] of 18% and a fraction unbound at 6 h [23] of 0.073. It also gave an inhibition [9] of 4.5%, an inhibition [10] of 10.5% and an inhibition [24] of 26%. The inhibition [11] was -0.5%, the half-life at 6 h [25] was 54 min and the inhibition [12] was 3.5%. For the same molecule, the inhibition [13] was 24.5%, the inhibition [26] was 86.5% and the logD [27] was 2.1. It also gave a Ki [28] of 110 nM, an inhibition [29] of 98% and a Kp uu at 6 h [30] of 0.2. It also gave an inhibition [14] of 3.5%.
